From US8168651B2, “Protein kinase modulators” (Cylene Pharmaceuticals, Inc., priority 2008, dated 2012)

Assays:
Assay in all cases: Standardized radiometric kinase assays, percentage of activity at 0.5 μM;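 note: Read-out is ³³P-labelled substrate protein phosphorylated by each kinase, captured on filters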
[1] = target: each individual kinase of the panel (Homo sapiens, UniProt Q96RG2)
[2] = target: each individual kinase of the panel (Mus musculus, UniProt P16277)
[3] = target: each individual kinase of the panel (Homo sapiens, UniProt O00418)
Sequence of each individual kinase of the panel (Homo sapiens, UniProt O00418) (O00418 2-725 limits assumed): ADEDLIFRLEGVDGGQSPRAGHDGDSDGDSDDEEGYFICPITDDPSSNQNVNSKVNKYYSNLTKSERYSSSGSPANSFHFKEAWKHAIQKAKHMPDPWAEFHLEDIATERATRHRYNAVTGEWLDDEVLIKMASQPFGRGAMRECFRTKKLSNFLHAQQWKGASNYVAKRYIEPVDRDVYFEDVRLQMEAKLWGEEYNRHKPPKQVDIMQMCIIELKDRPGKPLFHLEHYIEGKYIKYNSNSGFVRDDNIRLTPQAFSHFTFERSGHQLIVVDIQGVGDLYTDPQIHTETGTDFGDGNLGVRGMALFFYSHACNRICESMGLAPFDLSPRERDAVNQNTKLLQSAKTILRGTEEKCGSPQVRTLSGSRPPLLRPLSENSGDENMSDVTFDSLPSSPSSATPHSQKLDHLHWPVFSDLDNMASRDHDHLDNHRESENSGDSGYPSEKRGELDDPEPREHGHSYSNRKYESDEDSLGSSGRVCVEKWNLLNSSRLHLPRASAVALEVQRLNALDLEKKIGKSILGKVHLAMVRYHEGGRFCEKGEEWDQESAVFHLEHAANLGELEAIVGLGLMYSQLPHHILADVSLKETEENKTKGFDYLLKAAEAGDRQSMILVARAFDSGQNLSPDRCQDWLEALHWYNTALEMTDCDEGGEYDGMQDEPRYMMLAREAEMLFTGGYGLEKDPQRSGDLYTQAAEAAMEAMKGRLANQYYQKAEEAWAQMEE

[4] = target: each individual kinase of the panel (Homo sapiens, UniProt Q13237)
Sequence of each individual kinase of the panel (Homo sapiens, UniProt Q13237) (Q13237 2-762 limits assumed): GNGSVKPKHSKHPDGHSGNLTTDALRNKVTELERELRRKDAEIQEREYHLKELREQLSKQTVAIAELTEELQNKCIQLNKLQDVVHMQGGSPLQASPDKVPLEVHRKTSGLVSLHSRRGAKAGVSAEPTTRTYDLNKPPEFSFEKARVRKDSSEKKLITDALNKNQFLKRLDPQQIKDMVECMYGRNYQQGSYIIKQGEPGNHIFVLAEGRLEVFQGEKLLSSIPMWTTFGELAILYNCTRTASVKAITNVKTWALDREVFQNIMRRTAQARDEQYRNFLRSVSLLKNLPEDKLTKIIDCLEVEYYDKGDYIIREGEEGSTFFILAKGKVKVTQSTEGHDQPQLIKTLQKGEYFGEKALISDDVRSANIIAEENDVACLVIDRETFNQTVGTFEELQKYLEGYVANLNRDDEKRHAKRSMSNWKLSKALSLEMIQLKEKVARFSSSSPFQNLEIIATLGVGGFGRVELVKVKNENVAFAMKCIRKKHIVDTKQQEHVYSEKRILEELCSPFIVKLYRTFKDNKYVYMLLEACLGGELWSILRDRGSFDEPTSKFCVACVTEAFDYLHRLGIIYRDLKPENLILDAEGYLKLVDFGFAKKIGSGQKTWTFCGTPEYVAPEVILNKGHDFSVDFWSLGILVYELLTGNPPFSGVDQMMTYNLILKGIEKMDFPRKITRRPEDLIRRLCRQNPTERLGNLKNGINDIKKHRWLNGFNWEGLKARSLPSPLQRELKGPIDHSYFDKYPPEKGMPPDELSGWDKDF

[5] = target: each individual kinase of the panel (Homo sapiens, UniProt P43250)
[6] = target: each individual kinase of the panel (Homo sapiens, UniProt Q86Y07)
[7] = target: each individual kinase of the panel (Homo sapiens, UniProt Q96PF2)
[8] = target: each individual kinase of the panel (Homo sapiens, UniProt Q9HBH9)
[9] = target: each individual kinase of the panel (Homo sapiens, UniProt P52333)
[10] = target: each individual kinase of the panel (Homo sapiens, UniProt P80192)
[11] = target: each individual kinase of the panel (Homo sapiens, UniProt P34947)
[12] = target: each individual kinase of the panel (Homo sapiens, UniProt P29322)
Sequence of each individual kinase of the panel (Homo sapiens, UniProt P29322) (P29322 28-1005 limits assumed): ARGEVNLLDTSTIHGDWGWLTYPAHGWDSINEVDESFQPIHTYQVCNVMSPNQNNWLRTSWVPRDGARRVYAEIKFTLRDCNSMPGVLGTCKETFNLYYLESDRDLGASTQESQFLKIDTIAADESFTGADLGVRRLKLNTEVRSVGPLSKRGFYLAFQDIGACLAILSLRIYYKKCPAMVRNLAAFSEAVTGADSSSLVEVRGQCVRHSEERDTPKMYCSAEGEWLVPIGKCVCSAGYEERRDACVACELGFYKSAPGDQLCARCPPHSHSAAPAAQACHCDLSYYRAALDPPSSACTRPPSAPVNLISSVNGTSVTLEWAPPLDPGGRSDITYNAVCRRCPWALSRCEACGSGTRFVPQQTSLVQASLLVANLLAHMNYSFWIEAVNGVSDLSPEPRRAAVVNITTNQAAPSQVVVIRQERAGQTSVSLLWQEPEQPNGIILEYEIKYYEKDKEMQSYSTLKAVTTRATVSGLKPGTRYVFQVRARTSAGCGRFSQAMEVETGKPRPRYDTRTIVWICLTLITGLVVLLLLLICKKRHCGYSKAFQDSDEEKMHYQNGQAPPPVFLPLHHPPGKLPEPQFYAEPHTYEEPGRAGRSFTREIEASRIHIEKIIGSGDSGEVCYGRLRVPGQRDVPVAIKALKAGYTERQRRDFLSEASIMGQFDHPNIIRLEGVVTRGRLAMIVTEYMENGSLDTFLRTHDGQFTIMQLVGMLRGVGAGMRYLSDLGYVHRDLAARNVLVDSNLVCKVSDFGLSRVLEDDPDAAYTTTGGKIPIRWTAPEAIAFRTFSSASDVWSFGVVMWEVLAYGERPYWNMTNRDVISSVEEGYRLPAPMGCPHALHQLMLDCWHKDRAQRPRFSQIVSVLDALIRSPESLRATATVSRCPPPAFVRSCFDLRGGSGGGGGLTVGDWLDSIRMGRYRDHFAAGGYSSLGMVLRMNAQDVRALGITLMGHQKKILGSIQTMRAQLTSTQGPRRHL

[13] = target: each individual kinase of the panel (Homo sapiens, UniProt Q16620)
Sequence of each individual kinase of the panel (Homo sapiens, UniProt Q16620) (Q16620 32-822 limits assumed): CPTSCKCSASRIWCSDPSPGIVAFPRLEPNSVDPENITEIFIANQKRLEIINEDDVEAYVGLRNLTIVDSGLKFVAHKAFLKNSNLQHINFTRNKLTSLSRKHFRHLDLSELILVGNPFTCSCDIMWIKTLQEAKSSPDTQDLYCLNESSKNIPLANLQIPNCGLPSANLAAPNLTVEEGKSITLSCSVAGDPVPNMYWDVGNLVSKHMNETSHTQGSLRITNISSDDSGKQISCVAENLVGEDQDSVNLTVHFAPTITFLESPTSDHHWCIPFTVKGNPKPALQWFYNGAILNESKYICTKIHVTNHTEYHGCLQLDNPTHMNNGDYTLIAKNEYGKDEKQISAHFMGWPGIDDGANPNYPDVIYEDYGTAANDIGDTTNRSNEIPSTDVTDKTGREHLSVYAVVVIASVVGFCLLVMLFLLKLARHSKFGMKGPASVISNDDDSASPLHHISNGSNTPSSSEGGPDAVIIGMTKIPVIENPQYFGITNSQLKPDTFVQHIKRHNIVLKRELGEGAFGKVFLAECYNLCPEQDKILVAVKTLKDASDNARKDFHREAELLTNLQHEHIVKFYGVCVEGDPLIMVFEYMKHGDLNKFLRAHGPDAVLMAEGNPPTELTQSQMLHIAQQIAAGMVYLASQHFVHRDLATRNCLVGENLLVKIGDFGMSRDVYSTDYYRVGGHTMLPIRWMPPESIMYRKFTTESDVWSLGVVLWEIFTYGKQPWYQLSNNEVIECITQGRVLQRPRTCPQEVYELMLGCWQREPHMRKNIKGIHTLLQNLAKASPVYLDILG

[14] = target: each individual kinase of the panel (Homo sapiens, UniProt Q9Y3S1)
[15] = target: each individual kinase of the panel (Homo sapiens, UniProt Q04759)
[16] = target: each individual kinase of the panel (Homo sapiens, UniProt Q9HBY8)
[17] = target: each individual kinase of the panel (Homo sapiens, UniProt O96017, I157T)
[18] = target: each individual kinase of the panel (Homo sapiens, UniProt O43318)
[19] = target: each individual kinase of the panel (Homo sapiens, UniProt P07948)
[20] = target: each individual kinase of the panel (Homo sapiens, UniProt P53778)
[21] = target: each individual kinase of the panel (Homo sapiens, UniProt P05129)
[22] = target: each individual kinase of the panel (Homo sapiens, UniProt O96017, R145W)
[23] = target: each individual kinase of the panel (Homo sapiens, UniProt Q12866)
Sequence of each individual kinase of the panel (Homo sapiens, UniProt Q12866) (Q12866 21-999 limits assumed): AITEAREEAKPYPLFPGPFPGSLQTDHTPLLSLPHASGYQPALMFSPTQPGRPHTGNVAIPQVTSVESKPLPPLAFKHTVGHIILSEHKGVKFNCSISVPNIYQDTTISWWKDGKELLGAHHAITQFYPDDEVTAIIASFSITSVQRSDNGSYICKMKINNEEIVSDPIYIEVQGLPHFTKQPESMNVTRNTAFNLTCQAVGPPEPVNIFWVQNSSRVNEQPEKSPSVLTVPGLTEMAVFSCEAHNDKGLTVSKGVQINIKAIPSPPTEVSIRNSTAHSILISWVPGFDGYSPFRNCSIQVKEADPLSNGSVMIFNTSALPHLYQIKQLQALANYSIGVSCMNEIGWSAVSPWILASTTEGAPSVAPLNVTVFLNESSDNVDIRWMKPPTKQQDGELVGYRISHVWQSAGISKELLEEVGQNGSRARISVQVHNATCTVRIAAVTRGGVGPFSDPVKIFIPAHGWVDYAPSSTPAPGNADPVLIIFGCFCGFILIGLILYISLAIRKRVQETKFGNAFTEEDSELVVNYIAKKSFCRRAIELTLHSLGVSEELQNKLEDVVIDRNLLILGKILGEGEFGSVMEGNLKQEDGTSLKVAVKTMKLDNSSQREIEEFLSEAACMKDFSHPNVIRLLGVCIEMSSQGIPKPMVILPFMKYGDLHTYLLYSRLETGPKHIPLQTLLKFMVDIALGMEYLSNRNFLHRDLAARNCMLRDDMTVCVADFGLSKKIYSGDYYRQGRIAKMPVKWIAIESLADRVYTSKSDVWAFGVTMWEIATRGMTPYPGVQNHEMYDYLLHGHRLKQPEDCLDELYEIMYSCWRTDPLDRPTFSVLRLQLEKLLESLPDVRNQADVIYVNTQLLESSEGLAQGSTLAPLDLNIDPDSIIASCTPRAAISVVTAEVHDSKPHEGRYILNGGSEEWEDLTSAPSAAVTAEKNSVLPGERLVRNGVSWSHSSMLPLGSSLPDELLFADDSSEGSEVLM

[24] = target: each individual kinase of the panel (Homo sapiens, UniProt O96017)
[25] = target: each individual kinase of the panel (Homo sapiens, UniProt P19784)
[26] = target: each individual kinase of the panel (Homo sapiens, UniProt Q9BXA7)

Sequence of each individual kinase of the panel (Mus musculus, UniProt P16277) (P16277 2-499 limits assumed): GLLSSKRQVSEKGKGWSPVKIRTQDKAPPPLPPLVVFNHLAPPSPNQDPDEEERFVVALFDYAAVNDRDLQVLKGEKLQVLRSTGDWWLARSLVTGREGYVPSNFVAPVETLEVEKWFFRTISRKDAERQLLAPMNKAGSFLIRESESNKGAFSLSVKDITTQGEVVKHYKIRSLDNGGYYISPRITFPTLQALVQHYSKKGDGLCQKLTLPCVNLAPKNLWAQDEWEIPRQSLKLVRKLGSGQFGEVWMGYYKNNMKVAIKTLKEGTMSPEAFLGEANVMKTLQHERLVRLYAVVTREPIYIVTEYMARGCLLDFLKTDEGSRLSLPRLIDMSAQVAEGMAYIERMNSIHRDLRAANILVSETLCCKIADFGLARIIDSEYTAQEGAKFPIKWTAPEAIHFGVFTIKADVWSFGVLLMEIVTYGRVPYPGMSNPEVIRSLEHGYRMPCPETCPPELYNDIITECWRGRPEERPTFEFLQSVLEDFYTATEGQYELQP

`O=C(O)c1ccc2c(c1)nc(Nc1cccc(Cl)c1)c1ccncc12` [drawing 1136] was tested, and the “PASK percentage of activity” value [1] was 85%, the “Blk(m) percentage of activity” value [2] was 14% and the “eEF−2K(h) percentage of activity” value [3] was 3%. For the same compound, the “PRKG2 percentage of activity” value [4] was −10%, the “GRK6 percentage of activity” value [5] was 44% and the “VRK2 percentage of activity” value [6] was −3%. For the same compound, the “TSSK2 percentage of activity” value [7] was −11%, the “Mnk2 percentage of activity” value [8] was 79% and the “JAK3 percentage of activity” value [9] was 37%. For the same compound, the “MLK1 percentage of activity” value [10] was 43%, the “GRK5 percentage of activity” value [11] was 74% and the “EPHA8 percentage of activity” value [12] was −10%. The “TRKB percentage of activity” value [13] was 24%, the “WNK2 percentage of activity” value [14] was 4% and the “PRKCT percentage of activity” value [15] was −3%. The “SGK2 percentage of activity” value [16] was 4%, the “CHK2(1157T) (h) percentage of activity” value [17] was 15% and the “TAK1 percentage of activity” value [18] was 4%. The “LYN percentage of activity” value [19] was 13%, the “p38-gamma percentage of activity” value [20] was 21% and the “PRKCG percentage of activity” value [21] was 6%. For the same compound, the “CHK2(R145W) (h) percentage of activity” value [22] was 6%, the “MER percentage of activity” value [23] was 82% and the “CHK2 percentage of activity” value [24] was 20%. The “CK2 alpha 2 percentage of activity” value [25] was 103% and the “TSSK1 percentage of activity” value [26] was −12%.
